We go through 17 molecules from PubChem BioAssay (NCI).

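Method: 48-hour compound exposure of cells in 96-well plates, five concentrations, linear interpolation of endpoints. TGI denotes the concentration required for complete inhibition of growth.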

Among the test systems are CAKI-1 renal; HCC-2998 colon; HCT-116 colon; HS 578T breast; IGROV1 ovarian; LOX IMVI melanoma; NCI-H460 lung; SF-539 CNS; BT-549 breast.
Holding throughout (assay): NCI tumour cell line growth inhibition, 48 h

As to `O=C1NCC2(CCNCC2)N1c1ccccc1`, the TGI with CAKI-1 renal, in the assay on HCC-2998 colon, in the assay with HCT-116 colon, in the assay with HS 578T breast, in the assay on IGROV1 ovarian and with LOX IMVI melanoma was over 100 µM each time. The TGI in the assay on NCI-H460 lung and in the assay with SF-539 CNS was over 100 µM each time.

With `Oc1c(C2=NNC(c3cccs3)C2)ccc2ccccc12` (centres undefined), the TGI with BT-549 breast was over 100 µM; in the assay on CAKI-1 renal, over 100 µM; in the assay with HCC-2998 colon, 34.2 µM; in the assay on HCT-116 colon, 30.6 µM; in the assay on HS 578T breast, 74.5 µM; in the assay with IGROV1 ovarian, 95.9 µM. In addition, the TGI in the assay on NCI-H460 lung came out at 43.4 µM; in the assay on SF-539 CNS, 43.1 µM.

As for `Cc1ccc(S(=O)(=O)N2CCCSCCSCCCSCC2)cc1`, the TGI in the assay on BT-549 breast, in the assay with HCC-2998 colon, in the assay on HCT-116 colon, in the assay on IGROV1 ovarian, in the assay with LOX IMVI melanoma and in the assay with NCI-H460 lung was over 100 µM each time. This molecule also returned a TGI with SF-539 CNS of over 100 µM.

With `O=C1/C(=C\c2ccc([N+](=O)[O-])cc2)Sc2scc(-c3ccc(O)c(O)c3)[n+]21`, the TGI in the assay with CAKI-1 renal is 9.72 µM; in the assay on HCC-2998 colon, 19 µM; with HCT-116 colon it was 75.2 µM; with HS 578T breast it was 63.7 µM; in the assay with IGROV1 ovarian, 19.7 µM; with LOX IMVI melanoma, over 100 µM. The TGI in the assay on NCI-H460 lung came out at 16.5 µM; in the assay on SF-539 CNS, 22.5 µM.

As for `CC(=O)OCC1OC(Nc2ccc3nc(C)n(-c4cccc(C)c4)c(=O)c3c2)C(OC(C)=O)C(OC(C)=O)C1OC(C)=O` (centres undefined), the TGI in the assay on BT-549 breast, with CAKI-1 renal, in the assay on HCC-2998 colon, in the assay on HCT-116 colon, with HS 578T breast and in the assay on IGROV1 ovarian was over 62.5 µM each time. Further, the TGI in the assay with LOX IMVI melanoma and in the assay with NCI-H460 lung was over 62.5 µM each time.

Consider `O=[N+]([O-])c1ccc(Cl)cc1-n1nc(-c2ccccc2)cc1-c1ccccc1`, for which the TGI with BT-549 breast, in the assay on CAKI-1 renal, in the assay with HCC-2998 colon, in the assay with HCT-116 colon, with HS 578T breast and in the assay on IGROV1 ovarian was over 100 µM throughout. The TGI with NCI-H460 lung and in the assay on SF-539 CNS was over 100 µM in each case.

As for `COc1cc([C@@H]2c3cc4c(cc3[C@H](OC3OC5COC(C(C)C)OC5C(O)C3O)C3COC(=O)[C@@H]32)OCO4)cc(OC)c1O` (some centres undefined), the TGI with BT-549 breast stood at 15.9 µM; in the assay on CAKI-1 renal, 19.2 µM; in the assay with HCT-116 colon it was 13.5 µM; in the assay with HS 578T breast, 42.3 µM; in the assay on IGROV1 ovarian, 21.8 µM; with LOX IMVI melanoma, 30 µM. Moreover, the TGI turned out to be 10.2 µM with NCI-H460 lung and 8.18 µM in the assay on SF-539 CNS.

As to `Cc1ccc(/C=C2\N=C(N3CCCCC3)NC2=O)cc1`, the TGI in the assay with BT-549 breast, in the assay with CAKI-1 renal, in the assay with HCC-2998 colon, in the assay with HCT-116 colon, with HS 578T breast and with LOX IMVI melanoma was over 100 µM in each case. The molecule also showed a TGI with SF-539 CNS of over 100 µM.

As for `Cc1ccc(-c2sc(-c3ccc(C)cc3)c3c2C2CCC3C2)cc1`, the TGI in the assay on BT-549 breast, with CAKI-1 renal, in the assay on HCT-116 colon, in the assay on HS 578T breast, in the assay on IGROV1 ovarian and with LOX IMVI melanoma was over 50 µM each time. Besides, the TGI in the assay with NCI-H460 lung and in the assay with SF-539 CNS was over 50 µM each time.

With `Cc1nc(-c2ccccc2)c(C)n2c1nc1ccccc12`, the TGI in the assay with BT-549 breast is 65.5 µM; in the assay on CAKI-1 renal it was over 100 µM; in the assay on HCT-116 colon, over 100 µM; in the assay with HS 578T breast, over 100 µM; with IGROV1 ovarian it was over 100 µM; in the assay with LOX IMVI melanoma, over 100 µM. Besides, the TGI with NCI-H460 lung was 63.3 µM; in the assay with SF-539 CNS, over 100 µM.

Consider `CCOc1cc(/C=N\N(C)C)cc(/C=N\N(C)C)c1O`, for which the TGI with CAKI-1 renal was 46.8 µM; with HCC-2998 colon it was over 100 µM; with HCT-116 colon, over 100 µM; with HS 578T breast, over 100 µM; in the assay on LOX IMVI melanoma, 79.5 µM; in the assay with NCI-H460 lung, over 100 µM. Moreover, the TGI in the assay with SF-539 CNS stood at 65.4 µM.

In the case of `CN(C)CCN1C(=O)CC[C@@]2(C)C1=CC[C@@H]1[C@@H]2CC[C@@]2(C)[C@H]1CC[C@]2(C)O`, the TGI in the assay on BT-549 breast, in the assay with CAKI-1 renal, with HCT-116 colon, in the assay with HS 578T breast, in the assay on IGROV1 ovarian and in the assay on LOX IMVI melanoma was over 100 µM in each case. The TGI in the assay on NCI-H460 lung and in the assay with SF-539 CNS was over 100 µM in each case.

Turning to `ClC(Cl)(Cl)C1CCOC1n1nc2ccccc2n1` (centres undefined), the TGI in the assay with BT-549 breast, with CAKI-1 renal, in the assay with HCC-2998 colon, with HCT-116 colon, with HS 578T breast and in the assay with IGROV1 ovarian was over 100 µM throughout. Further, the TGI in the assay with NCI-H460 lung and in the assay on SF-539 CNS was over 100 µM throughout.

With `CC1=C2C(=O)O[C@@H](c3ccoc3)[C@]2(C)CCC1=O`, the TGI in the assay with BT-549 breast, in the assay with CAKI-1 renal, with HCC-2998 colon, in the assay with HCT-116 colon, with IGROV1 ovarian and with LOX IMVI melanoma was over 100 µM throughout. In addition, the TGI in the assay on NCI-H460 lung and in the assay with SF-539 CNS was over 100 µM throughout.

Take `CN(C)CCOc1ccc(I)cc1Cc1ccccc1`: the TGI in the assay with BT-549 breast was 28.6 µM; in the assay on HCC-2998 colon, 9.62 µM; in the assay with HCT-116 colon, 22.4 µM; in the assay with HS 578T breast, 29.3 µM; in the assay on IGROV1 ovarian it was 17.4 µM; in the assay with LOX IMVI melanoma it was 19.2 µM. For the same molecule, the results for the TGI in the assay with NCI-H460 lung and in the assay with SF-539 CNS were 26.8 µM and 27.8 µM, respectively.

With `COc1c(Cl)ccc(Cl)c1C(=O)NNC(=O)c1c(Cl)c(Cl)c(Cl)c(Cl)c1-c1nc2ccc(C(=O)c3ccccc3)cc2[nH]1`, the TGI with BT-549 breast, in the assay on CAKI-1 renal, with HCT-116 colon, in the assay on HS 578T breast, in the assay with IGROV1 ovarian and in the assay on LOX IMVI melanoma was over 100 µM in each case. In addition, the TGI in the assay with SF-539 CNS is over 100 µM.

Consider `COCCOCN(C(=O)C1=CCC2(CC1)OCCO2)c1ccccc1I`, for which the TGI in the assay with CAKI-1 renal, in the assay on HCC-2998 colon, with HCT-116 colon, in the assay with LOX IMVI melanoma and in the assay with NCI-H460 lung was over 50 µM in each case.
